Laboratory results: patent US20170334899A1, “AMINO-SUBSTITUTED ISOTHIAZOLES” (Bayer Pharma Aktiengesellschaft, priority 2014, published 2017)

Columns and labels:
[1] = tested on: human cervical tumor cell line HeLa (ATCC CCL-2); assay: SAC-Formation - Paclitaxel-Induced Assay; format: cell-based; settings: Homo sapiens, HeLa, 24 h, HeLa cells, paclitaxel 0.05 μM, test range 0.005 μM-20 μM, read-out: IC50 [mol/l] SAC-Formation - Paclitaxel-Induced Assay
How it was run: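 Read-out is high-content imaging of anti-phospho-H3 Ser10 (mitosis) and Hoechst 33342 (DNA, cell number), with decreased mitotic fraction marking checkpoint breakthrough. Compounds (0.005–20 μM) and 0.05 μM paclitaxel co-added to overnight-plated HeLa for 24 h at 37° C; four-parameter Hill fit.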

HeLa = assay: Proliferation assay (crystal violet), HeLa; format: cell-based; settings: Homo sapiens, HeLa, 96 h, HeLa cells; 4 days incubation; crystal violet staining; read-out: IC50 inhibition of proliferation, HeLa
How it was run: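 Absorbance at 595 nm of crystal-violet-stained cells after 4 days' exposure to 0.001–10 μM compound (0.5% DMSO). Values normalized to a day-0 plate (0%) and untreated cells (100%); IC50 by 4-parameter fit.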

Compound | IC50 [1] [µM] | IC50 (HeLa) [µM]
Cc1nsc(Nc2cncc(C(F)(F)F)n2)c1C(=O)Nc1ccc(F)c(OC2CCN(CC(F)F)CC2)c1 [Example 268, N-(3-{[1-(2,2-difluoroethyl)piperidin-4-yl]oxy}-4-fluorophenyl)-3-methyl-5-{[6-(trifluoromethyl)pyrazin-2-yl]amino}-1,2-thiazole-4-carboxamide] | 0.11 | 0.31
Cc1nsc(Nc2cncc(C(F)(F)F)n2)c1C(=O)Nc1ccc(F)c(OC2CCN(CCF)CC2)c1 [Example 269, N-(4-fluoro-3-{[1-(2-fluoroethyl)piperidin-4-yl]oxy}phenyl)-3-methyl-5-{[6-(trifluoromethyl)pyrazin-2-yl]amino}-1,2-thiazole-4-carboxamide] | 0.21 | 0.84
Cc1nsc(Nc2cnc(C(F)(F)F)cn2)c1C(=O)Nc1ccc(C(=O)NC2CN(CC(F)(F)F)C2)cc1 [Example 270, 3-methyl-N-(4-{[1-(2,2,2-trifluoroethyl)azetidin-3-yl]carbamoyl}phenyl)-5-{[5-(trifluoromethyl)pyrazin-2-yl]amino}-1,2-thiazole-4-carboxamide] | 10 | > 10
Cc1nsc(Nc2cnc(C(F)(F)F)cn2)c1C(=O)Nc1ccc(C(=O)NC2CN(CC(F)F)C2)cc1 [Example 271, N-(4-{[1-(2,2-difluoroethyl)azetidin-3-yl]carbamoyl}phenyl)-3-methyl-5-{[5-(trifluoromethyl)pyrazin-2-yl]amino}-1,2-thiazole-4-carboxamide] | 2.1 | 9.4
Cc1nsc(Nc2cncc(C(F)(F)F)n2)c1C(=O)Nc1ccc(C(=O)N2CCN(CC(F)(F)F)CC2)cc1 [Example 272, 3-methyl-N-(4-{[4-(2,2,2-trifluoroethyl)piperazin-1-yl]carbonyl}phenyl)-5-{[6-(trifluoromethyl)pyrazin-2-yl]amino}-1,2-thiazole-4-carboxamide] | 2.4 | 5.8
Cc1nsc(Nc2cncc(C(F)(F)F)n2)c1C(=O)Nc1ccc(C(=O)N2CCN(CC(F)F)CC2)cc1 [Example 273, N-(4-{[4-(2,2-difluoroethyl)piperazin-1-yl]carbonyl}phenyl)-3-methyl-5-{[6-(trifluoromethyl)pyrazin-2-yl]amino}-1,2-thiazole-4-carboxamide] | 4.8 | 7.6
Cc1nsc(Nc2cncc(C(F)(F)F)n2)c1C(=O)Nc1ccc(C(=O)N2CCN(CCF)CC2)cc1 [Example 274, N-(4-{[4-(2-fluoroethyl)piperazin-1-yl]carbonyl}phenyl)-3-methyl-5-{[6-(trifluoromethyl)pyrazin-2-yl]amino}-1,2-thiazole-4-carboxamide] | 9 | > 10
CCN1CCN(C(=O)c2ccc(NC(=O)c3c(C)nsc3Nc3cncc(C(F)(F)F)n3)cc2)CC1 [Example 275, N-{4-[(4-ethylpiperazin-1-yl)carbonyl]phenyl}-3-methyl-5-{[6-(trifluoromethyl)pyrazin-2-yl]amino}-1,2-thiazole-4-carboxamide] | 4.4 | > 10
Cc1nsc(Nc2cncc(C(F)(F)F)n2)c1C(=O)Nc1ccc(OCCO)nc1 [Example 276, N-[6-(2-hydroxyethoxy)pyridin-3-yl]-3-methyl-5-{[6-(trifluoromethyl)pyrazin-2-yl]amino}-1,2-thiazole-4-carboxamide] | 1.9 | 4.9
Cc1nsc(Nc2cnc(C(F)(F)F)cn2)c1C(=O)Nc1ccc(OCCO)nc1 [Example 277, N-[6-(2-hydroxyethoxy)pyridin-3-yl]-3-methyl-5-{[5-(trifluoromethyl)pyrazin-2-yl]amino}-1,2-thiazole-4-carboxamide] | 10 | 3.2
Cc1nsc(Nc2cncc(C(F)(F)F)n2)c1C(=O)Nc1ccc(OCCCO)nc1 [Example 278, N-[6-(3-hydroxypropoxy)pyridin-3-yl]-3-methyl-5-{[6-(trifluoromethyl)pyrazin-2-yl]amino}-1,2-thiazole-4-carboxamide] | 1.4 | 2.6
Cc1nsc(Nc2cnc(C(F)(F)F)cn2)c1C(=O)Nc1ccc(OCCCO)nc1 [Example 279, N-[6-(3-hydroxypropoxy)pyridin-3-yl]-3-methyl-5-{[5-(trifluoromethyl)pyrazin-2-yl]amino}-1,2-thiazole-4-carboxamide] | 0.72 | 2.2
Cc1nsc(Nc2cncc(C(F)(F)F)n2)c1C(=O)Nc1ccc(C(=O)NC2CN(CC(F)(F)F)C2)cc1 [Example 280, 3-methyl-N-(4-{[1-(2,2,2-trifluoroethyl)azetidin-3-yl]carbamoyl}phenyl)-5-{[6-(trifluoromethyl)pyrazin-2-yl]amino}-1,2-thiazole-4-carboxamide] | 3.7 | > 10
Cc1nsc(Nc2cnc3ccccc3n2)c1C(=O)Nc1cccc(NS(=O)(=O)C2CCN(CC(F)(F)F)CC2)c1 [Example 281, 3-methyl-5-(quinoxalin-2-ylamino)-N-[3-({[1-(2,2,2-trifluoroethyl)piperidin-4-yl]sulfonyl}amino)phenyl]-1,2-thiazole-4-carboxamide] | 3.9 | 8
Cc1nsc(Nc2cnc3ccccc3n2)c1C(=O)Nc1cccc(NS(=O)(=O)C2CCN(CC(F)F)CC2)c1 [Example 282, N-[3-({[1-(2,2-difluoroethyl)piperidin-4-yl]sulfonyl}amino)phenyl]-3-methyl-5-(quinoxalin-2-ylamino)-1,2-thiazole-4-carboxamide] | 3.5 | 6.2
Cc1nsc(Nc2cnc3ccccc3n2)c1C(=O)Nc1cccc(NS(=O)(=O)C2CCN(CCC(F)(F)F)CC2)c1 [Example 283, 3-methyl-5-(quinoxalin-2-ylamino)-N-[3-({[1-(3,3,3-trifluoropropyl)piperidin-4-yl]sulfonyl}amino)phenyl]-1,2-thiazole-4-carboxamide] | 7.1 | 8.4
Cc1nsc(Nc2cnc(C(F)(F)F)cn2)c1C(=O)Nc1cccc(NC(=O)OC(C)(C)C)c1 [Example 284, 3-tert-butyl (3-{[(3-methyl-5-{[5-(trifluoromethyl)pyrazin-2-yl]amino}-1,2-thiazol-4-yl)carbonyl]amino}phenyl)carbamate] | 0.12 | 0.54
Cc1nsc(Nc2cnc3ccccc3n2)c1C(=O)Nc1cccc(NS(=O)(=O)C2CN(CC(F)(F)F)C2)c1 [Example 285, 3-methyl-5-(quinoxalin-2-ylamino)-N-[3-({[1-(2,2,2-trifluoroethyl)azetidin-3-yl]sulfonyl}amino)phenyl]-1,2-thiazole-4-carboxamide] | 6.1 | > 10
Cc1nsc(Nc2cnc3ccccc3n2)c1C(=O)Nc1cccc(NS(=O)(=O)C2CN(CC(F)F)C2)c1 [Example 286, N-[3-({[1-(2,2-difluoroethyl)azetidin-3-yl]sulfonyl}amino)phenyl]-3-methyl-5-(quinoxalin-2-ylamino)-1,2-thiazole-4-carboxamide] | 6.5 | 10
Cc1nsc(Nc2cnc3ccccc3n2)c1C(=O)Nc1cccc(NS(=O)(=O)C2CN(CCF)C2)c1 [Example 287, N-[3-({[1-(2-fluoroethyl)azetidin-3-yl]sulfonyl}amino)phenyl]-3-methyl-5-(quinoxalin-2-ylamino)-1,2-thiazole-4-carboxamide] | 8.2 | 9.9
Cc1nsc(Nc2cnc3ccccc3n2)c1C(=O)Nc1cccc(NS(=O)(=O)C2CN(CCC(F)(F)F)C2)c1 [Example 288, 3-methyl-5-(quinoxalin-2-ylamino)-N-[3-({[1-(3,3,3-trifluoropropyl)azetidin-3-yl]sulfonyl}amino)phenyl]-1,2-thiazole-4-carboxamide] | 6.1 | 9.9
Cc1nsc(Nc2cnc3ccccc3n2)c1C(=O)Nc1cccc(NS(=O)(=O)C2CCN(CC(F)(F)F)C2)c1 (stereo not shown) [Example 289, 3-methyl-5-(quinoxalin-2-ylamino)-N-[3-({[1-(2,2,2-trifluoroethyl)pyrrolidin-3-yl]sulfonyl}amino)phenyl]-1,2-thiazole-4-carboxamide] | 3.3 | 7.8
Cc1nsc(Nc2cnc3ccccc3n2)c1C(=O)Nc1cccc(NS(=O)(=O)C2CCN(C(=O)OC(C)(C)C)C2)c1 (stereo not shown) [Example 290, tert-butyl 3-{[3-({[3-methyl-5-(quinoxalin-2-ylamino)-1,2-thiazol-4-yl]carbonyl}amino)phenyl]sulfamoyl} pyrrolidine-1-carboxylate] | 3.6 | 8.8
Cc1nsc(Nc2cnc3ccccc3n2)c1C(=O)Nc1cccc(NS(=O)(=O)C2CCCN(C(=O)OCc3ccccc3)C2)c1 (stereo not shown) [Example 291, benzyl 3-{[3-({[3-methyl-5-(quinoxalin-2-ylamino)-1,2-thiazol-4-yl]carbonyl}amino)phenyl]sulfamoyl} piperidine-1-carboxylate] | 4.8 | 8.9
Cc1nsc(Nc2cnc(C(F)(F)F)cn2)c1C(=O)Nc1ccc(OCCCNCC(F)(F)F)nc1 [Example 292, 3-methyl-N-(6-{3-[(2,2,2-trifluoroethyl)amino]propoxy}pyridin-3-yl)-5-{[5-(trifluoromethyl)pyrazin-2-yl]amino}-1,2-thiazole-4-carboxamide] | 0.42 | 1.8
Cc1nsc(Nc2cnc(C(F)(F)F)cn2)c1C(=O)Nc1ccc(OCCCNCC(F)F)nc1 [Example 293, N-(6-{3-[(2,2-difluoroethyl)amino]propoxy}pyridin-3-yl)-3-methyl-5-{[5-(trifluoromethyl)pyrazin-2-yl]amino}-1,2-thiazole-4-carboxamide] | 4 | 5.3
